Data as given in patent US9284315B2, “Three-ring PI3K and/or mTOR inhibitor” (XUANZHU PHARMA CO., LTD., priority 2011, dated 2016).

How the values were obtained:
in vivo [1] = settings: male, SD, rat, po, 4 mg/kg
[2] = male, SD, rat, in vivo, iv, 2 mg/kg
mTOR = mTOR (Homo sapiens (Human), UniProt P42345); assay: biochemical; assay type: binding
PI3Kα = PI3Kα (Homo sapiens (Human), UniProt P42336); assay: biochemical; assay type: binding
in vivo [3] = settings: male, SD, rat, iv, 2 mg/kg

Sequence of PI3Kα (P42336 whole entry): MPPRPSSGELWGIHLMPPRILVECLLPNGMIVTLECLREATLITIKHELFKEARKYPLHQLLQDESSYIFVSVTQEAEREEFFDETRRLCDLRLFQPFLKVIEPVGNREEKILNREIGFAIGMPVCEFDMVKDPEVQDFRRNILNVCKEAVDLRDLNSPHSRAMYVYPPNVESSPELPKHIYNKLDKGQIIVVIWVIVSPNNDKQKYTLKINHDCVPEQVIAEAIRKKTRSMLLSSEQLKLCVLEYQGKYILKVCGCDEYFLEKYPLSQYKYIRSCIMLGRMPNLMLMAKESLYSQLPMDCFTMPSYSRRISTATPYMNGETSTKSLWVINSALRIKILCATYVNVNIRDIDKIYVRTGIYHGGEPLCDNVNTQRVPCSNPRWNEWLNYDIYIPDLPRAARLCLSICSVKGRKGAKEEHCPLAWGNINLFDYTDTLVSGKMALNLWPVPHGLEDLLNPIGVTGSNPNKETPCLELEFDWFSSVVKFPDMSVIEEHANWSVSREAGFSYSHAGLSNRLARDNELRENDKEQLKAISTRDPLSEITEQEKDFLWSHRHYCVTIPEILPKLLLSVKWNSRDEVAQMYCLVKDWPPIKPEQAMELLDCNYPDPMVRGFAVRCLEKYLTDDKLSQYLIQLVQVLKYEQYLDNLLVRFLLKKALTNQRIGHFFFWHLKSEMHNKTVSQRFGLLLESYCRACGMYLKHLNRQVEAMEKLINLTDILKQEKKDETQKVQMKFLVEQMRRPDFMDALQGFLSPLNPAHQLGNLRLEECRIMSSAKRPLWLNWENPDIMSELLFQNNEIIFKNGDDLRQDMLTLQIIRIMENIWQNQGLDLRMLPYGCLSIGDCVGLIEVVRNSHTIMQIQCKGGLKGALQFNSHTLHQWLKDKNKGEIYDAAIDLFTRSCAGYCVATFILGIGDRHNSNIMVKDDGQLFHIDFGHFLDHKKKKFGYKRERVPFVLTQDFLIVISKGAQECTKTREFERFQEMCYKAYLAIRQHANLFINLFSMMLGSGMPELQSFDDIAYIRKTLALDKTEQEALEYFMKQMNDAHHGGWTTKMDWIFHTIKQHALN
Sequence of PI3Kα (P27986 whole entry partner): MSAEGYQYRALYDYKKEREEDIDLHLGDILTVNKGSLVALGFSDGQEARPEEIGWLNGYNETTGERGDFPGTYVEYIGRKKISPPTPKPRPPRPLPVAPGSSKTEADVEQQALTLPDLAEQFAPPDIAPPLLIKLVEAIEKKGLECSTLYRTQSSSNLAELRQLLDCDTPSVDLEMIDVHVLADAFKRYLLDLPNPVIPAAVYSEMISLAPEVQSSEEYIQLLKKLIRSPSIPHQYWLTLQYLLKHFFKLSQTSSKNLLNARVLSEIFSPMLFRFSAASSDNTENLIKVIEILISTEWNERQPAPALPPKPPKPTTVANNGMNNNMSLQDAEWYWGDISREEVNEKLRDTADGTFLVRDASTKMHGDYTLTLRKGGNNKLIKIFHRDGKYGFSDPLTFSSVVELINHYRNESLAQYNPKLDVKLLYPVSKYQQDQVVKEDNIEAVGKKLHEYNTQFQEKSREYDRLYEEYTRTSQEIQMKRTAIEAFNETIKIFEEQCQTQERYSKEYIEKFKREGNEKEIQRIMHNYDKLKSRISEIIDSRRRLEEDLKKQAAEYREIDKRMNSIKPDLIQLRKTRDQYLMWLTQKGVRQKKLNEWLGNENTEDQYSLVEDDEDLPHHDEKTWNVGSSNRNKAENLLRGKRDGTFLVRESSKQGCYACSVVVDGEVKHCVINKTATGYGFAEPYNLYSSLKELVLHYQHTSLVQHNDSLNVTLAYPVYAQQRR

## COc1ccc(-c2ccc3ncc4c(c3n2)N(C2CCN(C(=O)[C@@H](C)O)CC2)C(=O)N(C)C4)cn1 [Compound 86, (R)-1-(1-(2-hydroxypropanoyl)piperidin-4-yl)-9-(6-methoxypyridin-3-yl)-3-methyl-3,4-dihydropyrimido[5,4-c][1,5]naphthyridin-2(1H)-one]
In vivo [1]
  AUC: 177 ng·h/mL
  Cmax: 251 ng/mL
  Tmax: 19.8 min
  bioavailability: 58%
  half-life: 62.4 min
[2]
  Cl_obs: 227 mL/min/kg
  Vss_obs: 3.58 L/kg
mTOR
  IC50: 257 nM
PI3Kα
  IC50: 9.7 nM
In vivo [3]
  AUC: 154 ng·h/mL
  half-life: 12 min

## COc1ccc(-c2ccc3ncc4c(c3n2)N(C2CCNCC2)C(=O)N(C)C4)cn1 [Compound 114]
mTOR
  IC50: 732 nM
PI3Kα
  IC50: 115 nM
